Test results published in US6737383B1, “Herbicidal oxadiazolidines” (priority 1999, dated 2004).

What was measured:
bedstraw = experiment: Test B pre/postemergence bedstraw; type: in vivo, Galium aparine
Outline: (§1)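 Response is a visual 0-to-10 score relative to untreated plants, where 0 means no effect and 10 means complete control, taken twelve to sixteen days after application. Treatments went onto soil at planting and onto foliage of 1- to 4-leaf plants, using a surfactant-containing non-phytotoxic solvent.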

surinam grass = experiment: Test B pre/postemergence surinam grass; type: in vivo, Brachiaria decumbens
Outline: as §1

cocklebur = experiment: Test B pre/postemergence cocklebur; type: in vivo, Xanthium strumarium
Outline: as §1

corn = experiment: Test B pre/postemergence corn; type: in vivo, Zea mays
Outline: as §1

crabgrass = experiment: Test B pre/postemergence crabgrass; type: in vivo, Digitaria sanguinalis
Outline: as §1

giant foxtail = experiment: Test B pre/postemergence giant foxtail; type: in vivo, Setaria faberii
Outline: as §1

morningglory = experiment: Test B pre/postemergence morningglory; type: in vivo, Ipomoea hederacea
Outline: as §1

pigweed = experiment: Test B pre/postemergence pigweed; type: in vivo, Amaranthus retroflexus
Outline: as §1

rape = experiment: Test B pre/postemergence rape; type: in vivo, Brassica napus
Outline: as §1

soybean = experiment: Test B pre/postemergence soybean; type: in vivo, Glycine max
Outline: as §1

sugar beet = experiment: Test B pre/postemergence sugar beet; type: in vivo, Beta vulgaris
Outline: as §1

velvetleaf = experiment: Test B pre/postemergence velvetleaf; type: in vivo, Abutilon theophrasti
Outline: as §1

wheat = experiment: Test B pre/postemergence wheat; type: in vivo, Triticum aestivum
Outline: as §1

purple nutsedge = experiment: Test B pre/postemergence purple nutsedge; type: in vivo, Cyperus rotundus
Outline: as §1

duck salad = experiment: Test B flood test duck salad; type: in vivo, Heteranthera limosa
Outline: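 Each value is a visual injury score relative to controls, with 10 meaning complete control and 0 no effect. Evaluation took place twelve to sixteen days after the 2-leaf-stage plants were treated and kept in the greenhouse.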

[1] = Postemergence, Rate 125 g/ha, scale 0 to 10, 0 is no effect, 10 is complete control
[2] = Preemergence, Rate 62 g/ha, scale of 0 to 10 where 0 is no effect and 10 is complete control
[3] = Preemergence, Rate 250 g/ha, scale of 0 to 10 where 0 is no effect and 10 is complete control
[4] = Preemergence, Rate 500 g/ha, scale of 0 to 10 where 0 is no effect and 10 is complete control
[5] = Rate 62 g/ha, Postemergence, scale 0 to 10 (0 no effect, 10 complete control)
[6] = Rate 500 g/ha, Postemergence, scale 0 to 10, 0 no effect, 10 complete control

Cc1ccc(N(C(=O)n2oc(=O)n(-c3ccc4ccccc4c3)c2=O)C(C)C)cc1 [Compound 334]
Plant response rating, Bedstraw (bedstraw; [1]): 0
Bedstraw plant response rating (bedstraw; [2]): 0
Bedstraw plant response rating (0 to 10 scale) (bedstraw; Preemergence, Rate 125 g/ha): 0
Bedstraw plant response rating (bedstraw; [3]): 0
Bedstraw plant response rating (bedstraw; [4]): 0
Bedstraw plant response rating (bedstraw; [5]): 0
Plant response rating, Bedstraw (bedstraw; [6]): 0
Plant response rating, B. signalgrass (surinam grass; [1]): 0
B. signalgrass plant response rating (surinam grass; [2]): 0
B. signalgrass plant response rating (0 to 10 scale, 0 is no effect, 10 is complete control) (surinam grass; Preemergence, Rate 125 g/ha): 0
B. signalgrass plant response rating (surinam grass; [3]): 0
B. signalgrass plant response rating (surinam grass; [4]): 0
B. signalgrass plant response rating (surinam grass; [5]): 0
Plant response rating, B. signalgrass (surinam grass; Rate 250 g/ha, Postemergence, scale of 0 to 10 where 0 is no effect and 10 is complete control): 0
Plant response rating, B. signalgrass (surinam grass; [6]): 0
Plant response rating, Cocklebur (cocklebur; [1]): 0
Cocklebur plant response rating (cocklebur; [2]): 0
Cocklebur plant response rating (0 to 10 scale) (cocklebur; Preemergence, Rate 125 g/ha): 0
Cocklebur plant response rating (cocklebur; [3]): 0
Cocklebur plant response rating (cocklebur; [4]): 0
Cocklebur plant response rating (cocklebur; [5]): 0
Plant response rating, Cocklebur (cocklebur; [6]): 0
Plant response rating, Corn (corn; [1]): 0
Corn plant response rating (corn; [2]): 0
Corn plant response rating (0 to 10 scale) (corn; Preemergence, Rate 125 g/ha): 0
Corn plant response rating (corn; [3]): 0
Corn plant response rating (corn; [4]): 0
Corn plant response rating (corn; [5]): 0
Plant response rating, Corn (corn; [6]): 0
Plant response rating, Crabgrass (crabgrass; [1]): 0
Crabgrass plant response rating (crabgrass; [2]): 0
Crabgrass plant response rating (0 to 10 scale) (crabgrass; Preemergence, Rate 125 g/ha): 0
Crabgrass plant response rating (crabgrass; [3]): 0
Crabgrass plant response rating (crabgrass; [4]): 0
Crabgrass plant response rating (crabgrass; [5]): 0
Plant response rating, Crabgrass (crabgrass; [6]): 0
Plant response rating, Giant foxtail (giant foxtail; [1]): 0
Giant foxtail plant response rating (giant foxtail; [2]): 0
Giant foxtail plant response rating (0 to 10 scale) (giant foxtail; Preemergence, Rate 125 g/ha): 0
Giant foxtail plant response rating (giant foxtail; [3]): 0
Giant foxtail plant response rating (giant foxtail; [4]): 0
Giant foxtail plant response rating (giant foxtail; [5]): 0
Plant response rating, Giant foxtail (giant foxtail; [6]): 0
Plant response rating, Morningglory (morningglory; [1]): 0
Morningglory plant response rating (morningglory; [2]): 0
Morningglory plant response rating (0 to 10 scale) (morningglory; Preemergence, Rate 125 g/ha): 0
Morningglory plant response rating (morningglory; [3]): 0
Morningglory plant response rating (morningglory; [4]): 0
Morningglory plant response rating (morningglory; [5]): 0
Plant response rating, Morningglory (morningglory; [6]): 0
Plant response rating, Redroot pigweed (pigweed; [1]): 0
Redroot pigweed plant response rating (pigweed; [2]): 0
Redroot pigweed plant response rating (0 to 10 scale) (pigweed; Preemergence, Rate 125 g/ha): 0
Redroot pigweed plant response rating (pigweed; [3]): 0
Redroot pigweed plant response rating (pigweed; [4]): 0
Redroot pigweed plant response rating (pigweed; [5]): 0
Plant response rating, Redroot pigweed (pigweed; [6]): 0
Plant response rating, Rape (rape; [1]): 0
Rape plant response rating (rape; [2]): 0
Rape plant response rating (0 to 10 scale) (rape; Preemergence, Rate 125 g/ha): 0
Rape plant response rating (rape; [3]): 0
Rape plant response rating (rape; [4]): 0
Rape plant response rating (rape; [5]): 0
Plant response rating, Rape (rape; [6]): 0
Plant response rating, Soybean (soybean; [1]): 1
Soybean plant response rating (soybean; [2]): 0
Soybean plant response rating (0 to 10 scale) (soybean; Preemergence, Rate 125 g/ha): 0
Soybean plant response rating (soybean; [3]): 0
Soybean plant response rating (soybean; [4]): 0
Soybean plant response rating (soybean; [5]): 1
Plant response rating, Soybean (soybean; [6]): 2
Plant response rating, Sugarbeets (sugar beet; [1]): 0
Sugarbeets plant response rating (sugar beet; [2]): 0
Sugarbeets plant response rating (0 to 10 scale) (sugar beet; Preemergence, Rate 125 g/ha): 0
Sugarbeets plant response rating (sugar beet; [3]): 0
Sugarbeets plant response rating (sugar beet; [4]): 0
Sugarbeets plant response rating (sugar beet; [5]): 0
Plant response rating, Sugarbeets (sugar beet; [6]): 0
Plant response rating, Velvetleaf (velvetleaf; [1]): 0
Velvetleaf plant response rating (velvetleaf; [2]): 0
Velvetleaf plant response rating (0 to 10 scale) (velvetleaf; Preemergence, Rate 125 g/ha): 0
Velvetleaf plant response rating (velvetleaf; [3]): 0
Velvetleaf plant response rating (velvetleaf; [4]): 0
Velvetleaf plant response rating (velvetleaf; [5]): 0
Plant response rating, Velvetleaf (velvetleaf; [6]): 0
Plant response rating, Wheat (wheat; [1]): 0
Wheat plant response rating (wheat; [2]): 0
Wheat plant response rating (0 to 10 scale) (wheat; Preemergence, Rate 125 g/ha): 0
Wheat plant response rating (wheat; [3]): 0
Wheat plant response rating (wheat; [4]): 0
Wheat plant response rating (wheat; [5]): 0
Plant response rating, Wheat (wheat; [6]): 0
Plant response rating, Nutsedge (purple nutsedge; [1]): 0
Nutsedge plant response rating (purple nutsedge; [2]): 0
Nutsedge plant response rating (0 to 10 scale) (purple nutsedge; Preemergence, Rate 125 g/ha): 0
Nutsedge plant response rating (purple nutsedge; [3]): 0
Nutsedge plant response rating (purple nutsedge; [4]): 0
Nutsedge plant response rating (purple nutsedge; [5]): 0
Plant response rating, Nutsedge (purple nutsedge; [6]): 0
Ducksalad plant response rating (duck salad; Rate 62 g/ha, headed Pre-emergence (flood test species), scale 0 to 10 (0 no effect, 10 complete control)): 0
Ducksalad plant response rating (duck salad; Rate 125 g/ha, Pre-emergence, flood test species, scale 0 to 10 where 0 is no effect and 10 is complete control): 0
Ducksalad plant response rating (duck salad; Rate 250 g/ha, Pre-emergence, flood-test species, scale 0 to 10, 0 is no effect, 10 is complete control): 0
Ducksalad plant response rating (duck salad; Rate 500 g/ha, Pre-emergence, flood test species, scale 0 to 10 (0 no effect, 10 complete control)): 0
